Laboratory results: BindingDB's records for doi:10.1016/S0014-827X(03)00113-7 (Universit&Aagrove, 2003)

How the values were obtained:
[1] = biological target: T1, Muscarinic acetylcholine receptor M5 (Homo sapiens, UniProt P08912)
T1 sequence (P08912 whole entry): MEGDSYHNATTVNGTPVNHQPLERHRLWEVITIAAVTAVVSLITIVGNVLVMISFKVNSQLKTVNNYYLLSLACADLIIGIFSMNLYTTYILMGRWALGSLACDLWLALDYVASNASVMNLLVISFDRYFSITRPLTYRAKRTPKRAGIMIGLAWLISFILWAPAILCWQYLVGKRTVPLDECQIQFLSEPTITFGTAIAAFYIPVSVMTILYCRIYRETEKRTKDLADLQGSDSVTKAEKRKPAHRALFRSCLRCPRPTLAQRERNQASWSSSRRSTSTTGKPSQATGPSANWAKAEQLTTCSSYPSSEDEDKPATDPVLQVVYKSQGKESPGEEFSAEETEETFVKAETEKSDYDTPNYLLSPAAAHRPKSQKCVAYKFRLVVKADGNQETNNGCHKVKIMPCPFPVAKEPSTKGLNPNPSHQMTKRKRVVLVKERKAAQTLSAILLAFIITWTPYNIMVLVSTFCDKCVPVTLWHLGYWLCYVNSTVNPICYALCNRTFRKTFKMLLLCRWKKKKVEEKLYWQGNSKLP

[2] = biological target: Muscarinic acetylcholine receptor M3 (Homo sapiens, UniProt P20309)
[3] = biological target: T2, Muscarinic acetylcholine receptor M2 (Homo sapiens, UniProt P08172)
T2 sequence (P08172 whole entry): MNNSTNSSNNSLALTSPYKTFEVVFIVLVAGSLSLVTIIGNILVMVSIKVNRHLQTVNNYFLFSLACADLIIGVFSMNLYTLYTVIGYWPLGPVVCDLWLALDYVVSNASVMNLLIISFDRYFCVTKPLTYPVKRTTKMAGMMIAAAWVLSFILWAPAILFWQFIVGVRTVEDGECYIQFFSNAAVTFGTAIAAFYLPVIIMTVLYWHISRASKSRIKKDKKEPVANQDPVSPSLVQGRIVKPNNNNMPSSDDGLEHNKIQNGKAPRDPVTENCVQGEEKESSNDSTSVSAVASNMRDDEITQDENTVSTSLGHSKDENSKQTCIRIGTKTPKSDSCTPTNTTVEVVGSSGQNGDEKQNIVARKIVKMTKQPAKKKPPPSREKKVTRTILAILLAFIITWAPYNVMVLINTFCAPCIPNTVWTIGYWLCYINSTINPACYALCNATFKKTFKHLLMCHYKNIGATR

Muscarinic acetylcholine receptor M3, sequence (P20309 whole entry): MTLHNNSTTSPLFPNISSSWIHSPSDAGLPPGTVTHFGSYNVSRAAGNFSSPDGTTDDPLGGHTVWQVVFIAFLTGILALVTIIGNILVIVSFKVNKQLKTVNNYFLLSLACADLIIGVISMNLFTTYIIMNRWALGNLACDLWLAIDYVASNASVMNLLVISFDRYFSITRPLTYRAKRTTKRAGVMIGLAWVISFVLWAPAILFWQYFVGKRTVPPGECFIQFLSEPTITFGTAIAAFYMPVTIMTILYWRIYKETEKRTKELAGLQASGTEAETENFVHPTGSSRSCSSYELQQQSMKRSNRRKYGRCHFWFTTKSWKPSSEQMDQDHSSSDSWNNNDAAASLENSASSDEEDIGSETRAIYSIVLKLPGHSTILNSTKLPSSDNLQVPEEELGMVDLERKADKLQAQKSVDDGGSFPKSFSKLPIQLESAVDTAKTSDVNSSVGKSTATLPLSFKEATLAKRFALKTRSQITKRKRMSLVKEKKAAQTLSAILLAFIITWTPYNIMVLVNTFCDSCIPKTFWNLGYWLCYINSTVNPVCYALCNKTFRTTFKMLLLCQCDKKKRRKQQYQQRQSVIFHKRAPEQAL

Ki [1] [nM]	Ki [2] [nM]	Ki [3] [nM]	Compound
6.17	2.51	3.63	Cc1nccn1CC#CCOC1=NOCC1 [3-[4-(2-Methyl-1H-imidazol-1-yl)-2-butynyl]oxy-delta2-isoxazoline sesquifumarate]
51.3	6.31	93.3	Cc1n(CC#CCOC2=NOCC2)cc[n+]1C [NSC_0]

More lines, now with the values behind:

Compound	Ki [1] [nM]	Ki [2] [nM]	Ki [3] [nM]
Cc1n(CC#CCN2OCCC2=O)cc[n+]1C [2-[4-(2,3-Dimethyl-1H-imidazolium-1-yl)-2-butynyl]isoxazolidin-3-one iodide]	132	75.9	275
Cc1nccn1CC#CCOc1ccon1 [3-[4-(2-Methyl-1H-imidazol-1-yl)-2-butynyl]oxyisoxazole sesquifumarate]	209	110	282
Cc1n(CC#CCOc2ccon2)cc[n+]1-c1ccc(Br)cc1 [NSC_0]	60.3	17	112
Cc1nccn1CC#CCN1OCCC1=O [NSC_0]	0.51	102	72.4
